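Five compound concentrations were applied to cells in 96-well plates for 48 hours; endpoints were derived by simple linear interpolation of the resulting dose-response curve. The concentration for 50% growth inhibition is given as GI50.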 The source made the active and inactive calls. No stated cut-off is given here; in the data, active = GI50 up to about 1.1 µM and inactive = higher.
Assays:
Assay in all cases: growth of human tumour cells (NCI), 48 h
LXFL 529 = system: LXFL 529
HCT-116 = system: HCT-116
OVCAR-5 = system: OVCAR-5
TK-10 = system: TK-10
SF-268 = system: SF-268
KM-20L2 = system: KM-20L2
DLD-1 = system: DLD-1
NCI-H522 = system: NCI-H522
COLO 205 = system: COLO 205
M19-MEL = system: M19-MEL
NCI-H226 = system: NCI-H226
CCRF-CEM = system: CCRF-CEM
HCC 2998 = system: HCC 2998
U-251 = system: U-251
OVCAR-3 = system: OVCAR-3
RPMI-8226 = system: RPMI-8226
A549 = system: A549
IGROV-1 = system: IGROV-1
SK-OV-3 = system: SK-OV-3
DMS-273 = system: DMS-273
EKVX = system: EKVX
SN12C = system: SN12C
SNB-19 = system: SNB-19
KM12 = system: KM12
SNB-75 = system: SNB-75
SW-620 = system: SW-620
SNB-78 = system: SNB-78
HT-29 = system: HT-29
OVCAR-4 = system: OVCAR-4
DMS-114 = system: DMS-114
HOP-62 = system: HOP-62
UACC-62 = system: UACC-62
NCI-H460 = system: NCI-H460
M14 = system: M14
SF-295 = system: SF-295
HCT-15 = system: HCT-15
RXF 393 = system: RXF 393
MOLT-4 = system: MOLT-4
SR = system: SR
LOX IMVI = system: LOX IMVI
UACC-257 = system: UACC-257
SK-MEL-28 = system: SK-MEL-28
Malme-3M = system: Malme-3M
ACHN = system: ACHN
SF-539 = system: SF-539
K562 = system: K562
UO-31 = system: UO-31
786-0 = system: 786-0
SK-MEL-2 = system: SK-MEL-2
A498 = system: A498
HL-60 = system: HL-60
CAKI-1 = system: CAKI-1
OVCAR-8 = system: OVCAR-8
HOP-18 = system: HOP-18
SK-MEL-5 = system: SK-MEL-5
HOP-92 = system: HOP-92
NCI-H23 = system: NCI-H23
XF498 = system: XF498

SMILES: Cc1ccc(NC(=O)CC2SC(Nc3ccc(Cl)cc3)=NC2=O)cc1C (configuration not stated)
- GI50 (LXFL 529): 19.5 µM (inactive)
- GI50 (HCT-116): 18.1 µM (inactive)
- GI50 (OVCAR-5): 19 µM (inactive)
- GI50 (TK-10): 17.3 µM (inactive)
- GI50 (SF-268): 18.3 µM (inactive)
- GI50 (KM-20L2): 19.1 µM (inactive)
- GI50 (DLD-1): 18.9 µM (inactive)
- GI50 (NCI-H522): 7.85 µM (inactive)
- GI50 (COLO 205): 13.2 µM (inactive)
- GI50 (M19-MEL): 17.7 µM (inactive)
- GI50 (NCI-H226): > 47.2 µM (inactive)
- GI50 (CCRF-CEM): 3.24 µM (inactive)
- GI50 (HCC 2998): 18.6 µM (inactive)
- GI50 (U-251): 18.5 µM (inactive)
- GI50 (OVCAR-3): 18.9 µM (inactive)
- GI50 (RPMI-8226): 6.47 µM (inactive)
- GI50 (A549): 18.2 µM (inactive)
- GI50 (IGROV-1): > 46.3 µM (inactive)
- GI50 (SK-OV-3): > 49 µM (inactive)
- GI50 (DMS-273): 19.7 µM (inactive)
- GI50 (EKVX): 17.5 µM (inactive)
- GI50 (SN12C): 17.9 µM (inactive)
- GI50 (SNB-19): > 78.3 µM (inactive)
- GI50 (KM12): 19.9 µM (inactive)
- GI50 (SNB-75): 17.7 µM (inactive)
- GI50 (SW-620): 7.08 µM (inactive)
- GI50 (SNB-78): 21.1 µM (inactive)
- GI50 (HT-29): 18.2 µM (inactive)
- GI50 (OVCAR-4): 20.2 µM (inactive)
- GI50 (DMS-114): 21 µM (inactive)
- GI50 (HOP-62): > 100 µM (inactive)
- GI50 (UACC-62): 18.3 µM (inactive)
- GI50 (NCI-H460): 13.5 µM (inactive)
- GI50 (M14): 16.9 µM (inactive)
- GI50 (SF-295): > 44 µM (inactive)
- GI50 (HCT-15): 15.2 µM
- GI50 (RXF 393): 17.1 µM (inactive)
- GI50 (MOLT-4): 2.38 µM (inactive)
- GI50 (SR): 6.59 µM (inactive)
- GI50 (LOX IMVI): 19.4 µM (inactive)
- GI50 (UACC-257): 15.9 µM (inactive)
- GI50 (SK-MEL-28): 19.5 µM (inactive)
- GI50 (Malme-3M): 18.5 µM (inactive)
- GI50 (ACHN): 16.1 µM (inactive)
- GI50 (SF-539): 20.8 µM (inactive)
- GI50 (K562): 3.75 µM (inactive)
- GI50 (UO-31): 18.6 µM (inactive)
- GI50 (786-0): 17.8 µM (inactive)
- GI50 (SK-MEL-2): 12.7 µM (inactive)
- GI50 (A498): 23 µM (inactive)
- GI50 (HL-60): 3.12 µM (inactive)
- GI50 (CAKI-1): 21.2 µM (inactive)
- GI50 (OVCAR-8): 18 µM (inactive)
- GI50 (HOP-18): 18.5 µM (inactive)
- GI50 (SK-MEL-5): 20.3 µM (inactive)
- GI50 (HOP-92): 14.4 µM (inactive)
- GI50 (NCI-H23): 19 µM (inactive)

SMILES: O=C1OC(CC(=O)c2ccc(Cl)cc2)C(Cl)=C1Cl (configuration not stated)
- GI50 (LXFL 529): > 100 µM (inactive)
- GI50 (HCT-116): > 100 µM (inactive)
- GI50 (OVCAR-5): > 100 µM (inactive)
- GI50 (TK-10): > 100 µM (inactive)
- GI50 (SF-268): > 100 µM (inactive)
- GI50 (KM-20L2): > 100 µM (inactive)
- GI50 (DLD-1): 52.6 µM (inactive)
- GI50 (NCI-H522): 94.8 µM (inactive)
- GI50 (COLO 205): > 100 µM (inactive)
- GI50 (M19-MEL): > 100 µM (inactive)
- GI50 (NCI-H226): > 100 µM (inactive)
- GI50 (CCRF-CEM): 35.6 µM (inactive)
- GI50 (HCC 2998): > 100 µM (inactive)
- GI50 (U-251): > 100 µM (inactive)
- GI50 (OVCAR-3): > 100 µM (inactive)
- GI50 (RPMI-8226): 46.6 µM (inactive)
- GI50 (A549): > 100 µM (inactive)
- GI50 (IGROV-1): > 100 µM (inactive)
- GI50 (SK-OV-3): > 100 µM (inactive)
- GI50 (DMS-273): > 100 µM (inactive)
- GI50 (EKVX): > 100 µM (inactive)
- GI50 (SN12C): > 100 µM (inactive)
- GI50 (SNB-19): > 100 µM (inactive)
- GI50 (KM12): > 100 µM (inactive)
- GI50 (SNB-75): > 100 µM (inactive)
- GI50 (SW-620): > 100 µM (inactive)
- GI50 (HT-29): > 100 µM (inactive)
- GI50 (OVCAR-4): > 100 µM (inactive)
- GI50 (DMS-114): > 100 µM (inactive)
- GI50 (HOP-62): > 100 µM (inactive)
- GI50 (UACC-62): > 100 µM (inactive)
- GI50 (NCI-H460): > 100 µM (inactive)
- GI50 (M14): > 100 µM (inactive)
- GI50 (SF-295): > 100 µM (inactive)
- GI50 (HCT-15): > 100 µM
- GI50 (MOLT-4): 39.2 µM (inactive)
- GI50 (SR): 48.3 µM (inactive)
- GI50 (UACC-257): > 100 µM (inactive)
- GI50 (SK-MEL-28): > 100 µM (inactive)
- GI50 (Malme-3M): > 100 µM (inactive)
- GI50 (ACHN): > 100 µM (inactive)
- GI50 (XF498): > 100 µM (inactive)
- GI50 (SF-539): > 100 µM (inactive)
- GI50 (K562): 54.6 µM (inactive)
- GI50 (UO-31): > 100 µM (inactive)
- GI50 (786-0): > 100 µM (inactive)
- GI50 (SK-MEL-2): > 100 µM (inactive)
- GI50 (A498): > 100 µM (inactive)
- GI50 (HL-60): 26 µM (inactive)
- GI50 (CAKI-1): > 100 µM (inactive)
- GI50 (OVCAR-8): > 100 µM (inactive)
- GI50 (HOP-18): > 100 µM (inactive)
- GI50 (SK-MEL-5): > 100 µM (inactive)
- GI50 (HOP-92): > 100 µM (inactive)
- GI50 (NCI-H23): > 100 µM (inactive)

Source: ChEMBL document CHEMBL1201862, “PubChem BioAssay data set” (2004)
